Test results taken from publication PMC12136037, “Type II kinase inhibitors that target Parkinson’s disease–associated LRRK2” (Science Advances, 2025).
One block for each molecule: values may come before it.

Experiments:
Test in all cases: DSF 100 kinase selectivity screen;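 note: compound tested at 20 µM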
Assay type in all cases: binding
[1] = molecular target: T1, ~100 representative kinases (Homo sapiens, UniProt Q96PY6); conditions: protein NEK1; average of three replicates
T1 construct: Recombinant protein kinase domains with a concentration of 2 μM
T1 sequence (Q96PY6 1-1258): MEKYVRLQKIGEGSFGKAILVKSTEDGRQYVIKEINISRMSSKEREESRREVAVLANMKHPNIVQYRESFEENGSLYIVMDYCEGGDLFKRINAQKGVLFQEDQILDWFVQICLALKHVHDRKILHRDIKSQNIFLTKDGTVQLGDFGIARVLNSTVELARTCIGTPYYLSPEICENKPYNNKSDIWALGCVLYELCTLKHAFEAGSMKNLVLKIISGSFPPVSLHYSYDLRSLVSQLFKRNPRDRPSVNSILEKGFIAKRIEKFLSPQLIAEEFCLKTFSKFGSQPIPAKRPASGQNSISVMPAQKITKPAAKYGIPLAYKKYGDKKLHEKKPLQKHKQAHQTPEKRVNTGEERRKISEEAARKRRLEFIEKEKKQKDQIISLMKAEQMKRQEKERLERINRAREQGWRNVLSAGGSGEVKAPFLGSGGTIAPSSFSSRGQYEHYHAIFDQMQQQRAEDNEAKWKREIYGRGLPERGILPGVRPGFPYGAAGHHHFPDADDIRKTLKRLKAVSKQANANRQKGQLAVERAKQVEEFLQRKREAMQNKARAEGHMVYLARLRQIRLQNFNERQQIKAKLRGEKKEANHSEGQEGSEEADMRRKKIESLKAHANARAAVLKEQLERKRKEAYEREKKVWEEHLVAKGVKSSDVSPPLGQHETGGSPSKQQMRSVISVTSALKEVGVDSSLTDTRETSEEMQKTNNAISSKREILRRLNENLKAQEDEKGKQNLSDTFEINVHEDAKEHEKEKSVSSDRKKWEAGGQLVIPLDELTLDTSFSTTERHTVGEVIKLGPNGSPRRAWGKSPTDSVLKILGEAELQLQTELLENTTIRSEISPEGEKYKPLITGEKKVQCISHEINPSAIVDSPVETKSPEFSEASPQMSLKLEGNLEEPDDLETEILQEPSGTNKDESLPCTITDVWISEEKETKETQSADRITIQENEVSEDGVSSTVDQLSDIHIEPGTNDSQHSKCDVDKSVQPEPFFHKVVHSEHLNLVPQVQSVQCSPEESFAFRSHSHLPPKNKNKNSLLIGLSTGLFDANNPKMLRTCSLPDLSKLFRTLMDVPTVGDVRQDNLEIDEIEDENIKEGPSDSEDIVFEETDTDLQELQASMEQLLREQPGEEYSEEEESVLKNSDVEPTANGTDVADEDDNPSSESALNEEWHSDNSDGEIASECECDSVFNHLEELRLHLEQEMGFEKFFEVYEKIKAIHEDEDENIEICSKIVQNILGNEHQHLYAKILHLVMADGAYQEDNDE
Outline: (§1)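 Each kinase domain, at 2 μM, is mixed with 20 μM test compound and SYPRO Orange in Hepes (20 mM, pH 7.5) with 500 mM NaCl. Temperature is then raised at 3°C/min and fluorescence-monitored unfolding yields the melting temperature change, ΔTm in degrees Celsius.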

[2] = molecular target: T2, ~100 representative kinases (Homo sapiens, UniProt P22830); conditions: protein FECH; average of three replicates
T2 construct: Recombinant protein kinase domains with a concentration of 2 μM
T2 sequence (P22830 55-423): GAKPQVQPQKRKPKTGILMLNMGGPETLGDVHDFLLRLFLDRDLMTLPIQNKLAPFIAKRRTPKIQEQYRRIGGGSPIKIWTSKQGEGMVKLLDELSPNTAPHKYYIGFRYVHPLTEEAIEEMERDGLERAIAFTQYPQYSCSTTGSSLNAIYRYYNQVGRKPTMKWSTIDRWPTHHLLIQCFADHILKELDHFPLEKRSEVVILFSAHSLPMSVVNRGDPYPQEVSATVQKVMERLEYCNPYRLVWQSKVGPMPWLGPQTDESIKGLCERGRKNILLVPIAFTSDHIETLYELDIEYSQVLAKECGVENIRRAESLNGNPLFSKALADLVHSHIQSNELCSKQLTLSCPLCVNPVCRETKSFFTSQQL
Outline: as §1

[3] = molecular target: T3, ~100 representative kinases (Homo sapiens, UniProt P49759); conditions: Protein CLK1; average of three replicates
T3 construct: Recombinant protein kinase domains with a concentration of 2 μM
T3 sequence (P49759 whole entry, the tested form may be a part): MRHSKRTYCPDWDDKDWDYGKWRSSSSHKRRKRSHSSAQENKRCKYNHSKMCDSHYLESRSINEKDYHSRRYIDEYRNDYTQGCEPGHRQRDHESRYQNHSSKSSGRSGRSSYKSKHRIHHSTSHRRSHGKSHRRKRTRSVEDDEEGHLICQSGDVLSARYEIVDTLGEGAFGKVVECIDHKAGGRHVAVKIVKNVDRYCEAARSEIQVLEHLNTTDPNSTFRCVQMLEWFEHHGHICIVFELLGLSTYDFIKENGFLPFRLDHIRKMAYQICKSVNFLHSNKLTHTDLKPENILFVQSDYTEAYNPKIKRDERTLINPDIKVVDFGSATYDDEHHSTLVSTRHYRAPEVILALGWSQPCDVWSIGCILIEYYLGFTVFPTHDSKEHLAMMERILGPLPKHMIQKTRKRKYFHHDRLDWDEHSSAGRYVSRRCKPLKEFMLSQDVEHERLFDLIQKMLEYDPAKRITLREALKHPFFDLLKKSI
Outline: as §1

[4] = molecular target: T4, ~100 representative kinases (Homo sapiens, UniProt O14936); conditions: Protein CASK; average of three replicates
T4 construct: Recombinant protein kinase domains with a concentration of 2 μM
T4 sequence (O14936 1-926): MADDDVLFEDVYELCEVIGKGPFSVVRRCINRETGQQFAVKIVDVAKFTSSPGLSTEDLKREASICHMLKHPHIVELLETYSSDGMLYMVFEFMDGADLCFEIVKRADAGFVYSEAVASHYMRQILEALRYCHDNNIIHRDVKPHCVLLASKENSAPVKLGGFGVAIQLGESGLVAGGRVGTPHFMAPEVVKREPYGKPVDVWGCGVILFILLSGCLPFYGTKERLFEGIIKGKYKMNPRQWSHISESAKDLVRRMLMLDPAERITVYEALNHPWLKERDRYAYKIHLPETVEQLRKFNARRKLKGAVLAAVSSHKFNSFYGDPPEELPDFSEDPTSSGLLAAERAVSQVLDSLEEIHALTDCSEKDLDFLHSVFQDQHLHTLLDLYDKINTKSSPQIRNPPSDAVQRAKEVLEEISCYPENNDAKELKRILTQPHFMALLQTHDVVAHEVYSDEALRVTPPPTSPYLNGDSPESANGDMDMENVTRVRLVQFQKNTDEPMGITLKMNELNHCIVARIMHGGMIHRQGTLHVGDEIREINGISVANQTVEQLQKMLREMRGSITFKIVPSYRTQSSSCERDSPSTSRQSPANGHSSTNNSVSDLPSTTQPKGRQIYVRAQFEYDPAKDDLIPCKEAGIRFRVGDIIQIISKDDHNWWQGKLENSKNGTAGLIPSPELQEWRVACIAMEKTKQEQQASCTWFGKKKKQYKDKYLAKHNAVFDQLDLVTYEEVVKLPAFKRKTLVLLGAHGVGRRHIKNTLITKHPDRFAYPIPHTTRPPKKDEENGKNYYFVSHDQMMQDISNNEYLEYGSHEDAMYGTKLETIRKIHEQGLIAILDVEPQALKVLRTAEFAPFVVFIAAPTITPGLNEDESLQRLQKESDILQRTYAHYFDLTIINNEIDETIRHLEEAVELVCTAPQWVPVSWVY
Outline: as §1

[5] = molecular target: T5, ~100 representative kinases (Homo sapiens, UniProt O15075); conditions: Protein DCAMKL1; average of three replicates
T5 construct: Recombinant protein kinase domains with a concentration of 2 μM
T5 sequence (O15075 whole entry, the tested form may be a part): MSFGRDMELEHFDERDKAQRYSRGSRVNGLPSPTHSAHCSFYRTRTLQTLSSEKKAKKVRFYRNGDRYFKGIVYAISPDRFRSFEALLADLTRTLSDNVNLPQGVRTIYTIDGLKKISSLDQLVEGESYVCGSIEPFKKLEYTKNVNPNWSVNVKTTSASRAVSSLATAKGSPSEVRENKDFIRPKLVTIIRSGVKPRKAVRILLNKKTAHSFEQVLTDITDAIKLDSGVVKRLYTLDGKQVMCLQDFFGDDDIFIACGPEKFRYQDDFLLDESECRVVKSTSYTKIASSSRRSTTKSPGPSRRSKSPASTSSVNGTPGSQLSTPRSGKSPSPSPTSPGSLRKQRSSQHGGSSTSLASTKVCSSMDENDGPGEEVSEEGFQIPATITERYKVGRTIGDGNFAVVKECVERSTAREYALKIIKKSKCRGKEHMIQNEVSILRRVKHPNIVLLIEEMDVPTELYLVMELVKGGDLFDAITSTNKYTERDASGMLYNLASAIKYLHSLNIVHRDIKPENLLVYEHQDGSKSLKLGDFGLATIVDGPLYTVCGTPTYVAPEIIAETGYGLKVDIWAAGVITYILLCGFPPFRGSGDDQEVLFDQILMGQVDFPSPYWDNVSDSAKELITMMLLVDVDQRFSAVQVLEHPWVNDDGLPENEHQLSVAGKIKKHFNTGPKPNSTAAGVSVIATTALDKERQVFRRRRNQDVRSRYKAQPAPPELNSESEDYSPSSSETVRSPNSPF
Outline: as §1

SMILES: CN[C@@H]1C[C@H]2O[C@@](C)([C@@H]1OC)n1c3ccccc3c3c4c(c5c6ccccc6n2c5c31)C(=O)NC4 [Staurosporine]
dTm [5]: 12.74 K

SMILES: CC(=O)N1CCN(c2nc(Cl)nc3[nH]cc(-c4cccc(NC(=O)Nc5cc(C(C)(C)C)nn5-c5ccc(C)cc5)c4)c23)CC1 [Compound 31]
dTm [1]: -1.20 K
dTm [2]: -9.46 K
dTm [3]: 10.57 K
dTm [4]: -2.83 K
dTm [5]: 2.11 K

SMILES: O=C(Nc1cc(F)cc(Br)c1)C1(C(=O)Nc2cccc(-c3c[nH]c4ncnc(N5CCOCC5)c34)c2)CC1 [Compound 27]
dTm [1]: -1.82 K
dTm [2]: -2.87 K
dTm [3]: 7.78 K
dTm [4]: 1.15 K
dTm [5]: 4.07 K

SMILES: Cc1ccc(C(=O)Nc2ccc(CN3CCN(C)CC3)c(C(F)(F)F)c2)cc1C#Cc1cnc2[nH]ncc2c1 [GZD-824, reference compound]
dTm [1]: 1.45 K
dTm [3]: 7.80 K
dTm [4]: -2.40 K
dTm [5]: 0.30 K

SMILES: O=C(Nc1ccccc1)C1(C(=O)Nc2cccc(-c3c[nH]c4ncnc(N5CCOCC5)c34)c2)CC1 [Compound 12]
dTm [1]: 0.33 K
dTm [2]: 0.29 K
dTm [3]: 9.52 K
dTm [4]: 0.25 K
dTm [5]: 0.95 K

SMILES: CNC(=O)c1cc(Oc2ccc(NC(=O)Nc3cc(C(C)(C)C)nn3-c3ccc4ncccc4c3)c(F)c2)ccn1 [Rebastinib, reference compound]
dTm [1]: 2.10 K
dTm [2]: -5.98 K
dTm [3]: 15.99 K
dTm [4]: -12.03 K
dTm [5]: 3.67 K

SMILES: COc1cc2c(Oc3ccc(NC(=O)C4(C(=O)Nc5ccc(F)cc5)CC4)cc3F)ccnc2cc1OCCCN1CCOCC1 [Foretinib, reference compound]
dTm [1]: 0.60 K
dTm [2]: -11.10 K
dTm [3]: 6.72 K
dTm [4]: 0.53 K
dTm [5]: 0.55 K

More lines, now with the values ahead:

dTm [1]: -0.05 K
dTm [2]: 2.57 K
dTm [3]: 11.22 K
dTm [4]: 0.17 K
dTm [5]: 2.29 K
SMILES: Cc1cc(NC(=O)C2(C(=O)Nc3cccc(-c4c[nH]c5ncnc(N6CCOCC6)c45)c3)CC2)ccc1F [Compound 20]

dTm [1]: 0.68 K
dTm [3]: 5.28 K
dTm [4]: 0.33 K
dTm [5]: 2.14 K
SMILES: CCNc1nc(Nc2cc(F)c(C(=O)N3CCOCC3)cc2OC)ncc1C(F)(F)F [GNE-7915]

dTm [1]: -1.56 K
dTm [2]: -3.46 K
dTm [3]: 7.58 K
dTm [4]: 1.08 K
dTm [5]: 3.75 K
SMILES: CC(C)(C)c1cccc(NC(=O)C2(C(=O)Nc3cccc(-c4c[nH]c5ncnc(N6CCOCC6)c45)c3)CC2)c1 [Compound 22]

dTm [1]: -0.14 K
dTm [2]: 0.12 K
dTm [3]: 7.21 K
dTm [4]: 0.06 K
dTm [5]: -0.73 K
SMILES: O=C(Nc1cccc(-c2c[nH]c3ncnc(N4CCOCC4)c23)c1)C1(C(=O)Nc2ccc(F)cc2F)CC1 [Compound 23]
